Results published in US10626144B2, “Peptide derivatives and uses thereof” (Nosopharm, priority 2014, dated 2020).
Numbered stars: 1 amine (or outer) side, 2 acyl side, 3 side chain; on linkers, the order of the positions; unused ones are H or OH. Square brackets hold non-standard residues; d marks the D form. Peptide text beside a SMILES is read from it. * marks the point of attachment. Phe(4-COOH) = N[C@@H](Cc1ccc(C(=O)O)cc1)C(=O)O; Abu(4,4,4-F3) = N[C@@H](CC(F)(F)F)C(=O)O; Phe(4-Cl) = N[C@@H](Cc1ccc(Cl)cc1)C(=O)O; Phe(2-CN) = N#Cc1ccccc1C[C@H](N)C(=O)O; Dab(3S-OH) = NC[C@H](O)[C@H](N)C(=O)O; X4 = N=C(N)NCC/C=C(/N[*:1])C(=O)[*:2]; Lys(iPr) = CC(C)NCCCC[C@H](N)C(=O)O; Ethylenediamine = C(CN[*:2])N[*:1]; ΔZArg = N=C(N)NCC/C=C(\N)C(=O)O; Lys(Me) = CNCCCC[C@H](N)C(=O)O; NMeK = CN[C@@H](CCCCN)C(=O)O; dOrn = NCCC[C@@H](N)C(=O)O; hSer = N[C@@H](CCO)C(=O)O; Dab = NCC[C@H](N)C(=O)O; NH(CH2)5NH2 = NCCCCCN*; NH(CH2)4NH2 = NCCCCN*

Experiments:
Assay in all cases: MIC, broth microdilution (CLSI), reference strain
Details in all cases: CAMHB
[1] = test system: Acinetobacter baumannii ATCC 19606
[2] = test system: Escherichia coli ATCC 25922
[3] = test system: Pseudomonas aeruginosa ATCC 27853
[4] = test system: Staphylococcus aureus ATCC 13709

| Structure (SMILES) | Ab: MIC Acinetobacter baumannii ATCC 19606 [1] | Ec: MIC Escherichia coli ATCC 25922 [2] | Pa: MIC Pseudomonas aeruginosa ATCC 27853 [3] | Sa: MIC Staphylococcus aureus ATCC 13709 [4] |
| --- | --- | --- | --- | --- |
| C[C@H](NC(=O)/C(=C/CCNC(=N)N)NC(=O)[C@H](CCCCN)NC(=O)[C@H](Cc1cnc[nH]1)NC(=O)[C@@H]1CCCN1C(=O)[C@@H](CCCN)NC(=O)CNC(=O)[C@@H](NC(=O)[C@@H](NC(=O)[C@@H](N)CCCCN)[C@@H](O)CN)[C@@H](O)CN)C(N)=O [22.14] (H-K[Dab(3S-OH)][Dab(3S-OH)]G[dOrn]PHK[ΔZArg]A-NH2) | − (>32 μg/mL) | ++ (≤8 μg/mL) | − (>32 μg/mL) | ++ (≤8 μg/mL) |
| C[C@H](NC(=O)[C@@H](NC(=O)[C@@H](N)CCCCN)[C@@H](O)CN)C(=O)NCC(=O)N[C@H](CCCN)C(=O)N1CCC[C@H]1C(=O)N[C@@H](Cc1ccc(C(=O)O)cc1)C(=O)N[C@@H](CCCCN)C(=O)N/C(=C\CCNC(=N)N)C(=O)O [24.161] (H-K[Dab(3S-OH)]AG[dOrn]P[Phe(4-COOH)]K[ΔZArg]-OH) | − (>32 μg/mL) | ++ (≤8 μg/mL) | − (>32 μg/mL) | ++ (≤8 μg/mL) |
| CNCCCC[C@H](N)C(=O)N[C@H](C(=O)N[C@@H](C)C(=O)NCC(=O)N[C@H](CCCN)C(=O)N1CCC[C@H]1C(=O)N[C@@H](Cc1cnc[nH]1)C(=O)N[C@@H](CCCCN)C(=O)N/C(=C\CCNC(=N)N)C(N)=O)[C@@H](O)CN [24.64] (H-[Lys(Me)][Dab(3S-OH)]AG[dOrn]PHK[ΔZArg]-NH2) | − (>32 μg/mL) | ++ (≤8 μg/mL) | − (>32 μg/mL) | ++ (≤8 μg/mL) |
| N=C(N)NCC/C=C(\NC(=O)[C@H](CCCCN)NC(=O)[C@H](Cc1c[nH]cn1)NC(=O)[C@@H]1CCCN1C(=O)[C@@H](CCCN)NC(=O)CNC(=O)[C@H](CCO)NC(=O)[C@@H](NC(=O)[C@@H](N)CCCCN)[C@@H](O)CN)C(=O)O [225.1] (H-K[Dab(3S-OH)][hSer]G[dOrn]PHK[ΔZArg]-OH) | − (>32 μg/mL) | − (>32 μg/mL) | − (>32 μg/mL) | + (≤32 μg/mL) |
| CC(C)NCCCC[C@H](N)C(=O)N[C@H](C(=O)N[C@@H](C)C(=O)NCC(=O)N[C@H](CCCN)C(=O)N1CCC[C@H]1C(=O)N[C@@H](Cc1cnc[nH]1)C(=O)N[C@@H](CCCCN)C(=O)N/C(=C\CCNC(=N)N)C(=O)O)[C@@H](O)CN [24.147] (H-[Lys(iPr)][Dab(3S-OH)]AG[dOrn]PHK[ΔZArg]-OH) | − (>32 μg/mL) | − (>32 μg/mL) | − (>32 μg/mL) | − (>32 μg/mL) |
| N=C(N)NCC/C=C(\NC(=O)[C@H](CCCCN)NC(=O)[C@H](CC(F)(F)F)NC(=O)[C@@H]1CCCN1C(=O)[C@@H](CCCN)NC(=O)CNC(=O)[C@@H](NC(=O)[C@@H](NC(=O)[C@@H](N)CCCCN)[C@@H](O)CN)[C@@H](O)CN)C(=O)O [22.40] (H-K[Dab(3S-OH)][Dab(3S-OH)]G[dOrn]P[Abu(4,4,4-F3)]K[ΔZArg]-OH) | − (>32 μg/mL) | + (≤32 μg/mL) | − (>32 μg/mL) | ++ (≤8 μg/mL) |
| CN[C@@H](CCCCN)C(=O)N[C@H](C(=O)N[C@@H](C)C(=O)NCC(=O)N[C@H](CCCN)C(=O)N1CCC[C@H]1C(=O)N[C@@H](Cc1cnc[nH]1)C(=O)N[C@@H](CCCCN)C(=O)N/C(=C\CCNC(=N)N)C(=O)O)[C@@H](O)CN [24.126] (H-[NMeK][Dab(3S-OH)]AG[dOrn]PHK[ΔZArg]-OH) | − (>32 μg/mL) | + (≤32 μg/mL) | − (>32 μg/mL) | + (≤32 μg/mL) |
| C[C@H](NC(=O)[C@@H](NC(=O)[C@@H](N)CCCCN)[C@@H](O)CN)C(=O)NCC(=O)N[C@H](CCCN)C(=O)N1CCC[C@H]1C(=O)N[C@@H](Cc1cnc[nH]1)C(=O)N[C@@H](CCCCN)C(=O)N/C(=C\CCNC(=N)N)C(=O)N[C@@H](CCCCN)C(=O)NCCCCCN [24.6] (H-K[Dab(3S-OH)]AG[dOrn]PHK[ΔZArg]K-{NH(CH2)5NH2}) | + (≤32 μg/mL) | ++ (≤8 μg/mL) | ++ (≤8 μg/mL) | ++ (≤8 μg/mL) |
| N=C(N)NCC/C=C(\NC(=O)[C@@H](CCCCN)NC(=O)[C@H](Cc1cnc[nH]1)NC(=O)[C@@H]1CCCN1C(=O)[C@@H](CCCN)NC(=O)CNC(=O)[C@@H](NC(=O)[C@@H](NC(=O)[C@@H](N)CCCCN)[C@@H](O)CN)[C@@H](O)CN)C(=O)N[C@@H](CCCCN)C(=O)NCCCCN [22.11] (H-K[Dab(3S-OH)][Dab(3S-OH)]G[dOrn]PH[dK][ΔZArg]K-{NH(CH2)4NH2}) | − (>32 μg/mL) | ++ (≤8 μg/mL) | + (≤32 μg/mL) | ++ (≤8 μg/mL) |
| C[C@H](NC(=O)[C@H](CCN)NC(=O)[C@@H](N)CCCCN)C(=O)NCC(=O)N[C@H](CCCN)C(=O)N1CCC[C@H]1C(=O)N[C@@H](Cc1cnc[nH]1)C(=O)N[C@@H](CCCCN)C(=O)N/C(=C\CCNC(=N)N)C(=O)N[C@@H](CCCCN)C(=O)NCCN [14.6] (H-K[Dab]AG[dOrn]PHK[ΔZArg]K-Ethylenediamine) | − (>32 μg/mL) | + (≤32 μg/mL) | − (>32 μg/mL) | ++ (≤8 μg/mL) |
| CNCCCC[C@H](N)C(=O)N[C@H](C(=O)N[C@@H](C)C(=O)NCC(=O)N[C@H](CCCN)C(=O)N1CCC[C@H]1C(=O)N[C@@H](Cc1ccc(Cl)cc1)C(=O)N[C@@H](CCCCN)C(=O)N/C(=C\CCNC(=N)N)C(=O)O)[C@@H](O)CN [24.148] (H-[Lys(Me)][Dab(3S-OH)]AG[dOrn]P[Phe(4-Cl)]K[ΔZArg]-OH) | − (>32 μg/mL) | ++ (≤8 μg/mL) | − (>32 μg/mL) | ++ (≤8 μg/mL) |
| C[C@H](NC(=O)[C@@H](NC(=O)[C@@H](N)CCCCN)[C@@H](O)CN)C(=O)NCC(=O)N[C@H](CCCN)C(=O)N1CCC[C@H]1C(=O)N[C@@H](Cc1ccccc1C#N)C(=O)N[C@@H](CCCCN)C(=O)N/C(=C\CCNC(=N)N)C(=O)O [24.81] (H-K[Dab(3S-OH)]AG[dOrn]P[Phe(2-CN)]K[ΔZArg]-OH) | − (>32 μg/mL) | − (>32 μg/mL) | − (>32 μg/mL) | − (>32 μg/mL) |
| N=C(N)NCC/C=C(/NC(=O)[C@H](CCCCN)NC(=O)[C@H](Cc1cnc[nH]1)NC(=O)[C@@H]1CCCN1C(=O)[C@@H](CCCN)NC(=O)CNC(=O)[C@@H](NC(=O)[C@@H](NC(=O)[C@@H](N)CCCCN)[C@@H](O)CN)[C@@H](O)CN)C(=O)N[C@@H](CCCCN)C(=O)NCCCCN [22.7] (H-K[Dab(3S-OH)][Dab(3S-OH)]G[dOrn]PHK[X4]K-{NH(CH2)4NH2}) | + (≤32 μg/mL) | ++ (≤8 μg/mL) | ++ (≤8 μg/mL) | ++ (≤8 μg/mL) |
| C[C@H](NC(=O)[C@@H](NC(=O)[C@@H](N)CCCCN)[C@@H](O)CN)C(=O)NCC(=O)N[C@H](CCCN)C(=O)N1CCC[C@H]1C(=O)N[C@@H](Cc1cnc[nH]1)C(=O)N[C@@H](CCCCN)C(=O)N/C(=C\CCNC(=N)N)C(=O)N[C@@H](CCCCN)C(N)=O [24.2] (H-K[Dab(3S-OH)]AG[dOrn]PHK[ΔZArg]K-NH2) | − (>32 μg/mL) | ++ (≤8 μg/mL) | + (≤32 μg/mL) | ++ (≤8 μg/mL) |
| N=C(N)NCC/C=C(\NC(=O)[C@H](CCCCN)NC(=O)[C@H](Cc1cnc[nH]1)NC(=O)[C@@H]1CCCN1C(=O)[C@@H](CCCN)NC(=O)CNC(=O)[C@H](CCCNC(=N)N)NC(=O)[C@@H](NC(=O)[C@@H](N)CCCCN)[C@@H](O)CN)C(N)=O [217.1] (H-K[Dab(3S-OH)]RG[dOrn]PHK[ΔZArg]-NH2) | − (>32 μg/mL) | ++ (≤8 μg/mL) | − (>32 μg/mL) | ++ (≤8 μg/mL) |
| C[C@H](NC(=O)[C@H](CCN)NC(=O)[C@@H](N)CCN)C(=O)NCC(=O)N[C@H](CCCN)C(=O)N1CCC[C@H]1C(=O)N[C@@H](Cc1cnc[nH]1)C(=O)N[C@@H](CCCCN)C(=O)N/C(=C\CCNC(=N)N)C(=O)N[C@@H](CCCCN)C(=O)NCCCCN [14.25] (H-[Dab][Dab]AG[dOrn]PHK[ΔZArg]K-{NH(CH2)4NH2}) | − (>32 μg/mL) | − (>32 μg/mL) | − (>32 μg/mL) | + (≤32 μg/mL) |
